In this assay the target is T1, PTP1B (Homo sapiens, UniProt P18031).
T1 sequence (P18031 1-435): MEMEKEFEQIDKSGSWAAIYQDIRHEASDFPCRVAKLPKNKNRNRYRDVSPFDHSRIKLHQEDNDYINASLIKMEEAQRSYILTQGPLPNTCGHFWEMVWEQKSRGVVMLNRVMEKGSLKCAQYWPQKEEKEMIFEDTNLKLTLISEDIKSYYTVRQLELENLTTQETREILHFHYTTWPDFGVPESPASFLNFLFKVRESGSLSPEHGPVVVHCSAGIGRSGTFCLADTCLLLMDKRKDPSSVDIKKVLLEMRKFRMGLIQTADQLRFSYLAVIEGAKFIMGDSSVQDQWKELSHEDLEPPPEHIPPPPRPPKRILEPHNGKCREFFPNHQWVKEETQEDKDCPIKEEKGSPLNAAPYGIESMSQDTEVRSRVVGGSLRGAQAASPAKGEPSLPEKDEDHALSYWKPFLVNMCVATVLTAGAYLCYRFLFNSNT
The assay is described as follows: PTP1B inhibition assay (hydrolysis of p-nitrophenyl phosphate, 96-well plate).

Where two headings read alike, the source gives them in different places.

Description: PTP1B activity was measured as the rate of hydrolysis of p-nitrophenyl phosphate (pNPP) in a 96-well microtiter plate format [13]. […] Each experiment was performed in triplicate, and IC50 data were derived from three independent experiments.

For orientation: IC50 means the point on the concentration scale where inhibition reaches its midpoint. For `CCC(C)CC(C)C=C(C)C=CC=CC=C(C)C(O)=C1C(=O)NC(Cc2ccc(O)cc2)C1=O` (centres unmarked) [Compound 1, fumosorinone A], the IC50 was found to be 3.24 ± 0.37 µM. Compound `CC1CCC2(CC3OC(=O)CC3O2)O1` (centres unmarked) [Compound 4, Cepharosporolides F] had an IC50 above 1000 µM. As for `C[C@@H]1CC[C@]2(C[C@@H]3OC(=O)C[C@@H]3O2)O1` [Compound 3, Cepharosporolides E], the IC50 is above 1000 µM. The same measure, in the same setting: under `C[C@@H]1CCC(=O)C[C@H](O)[C@@H](O)CC(=O)O1` [Compound 2, Cepharosporolides C] stands above 1000 µM. In the case of “2-carboxymethyl-4-(3′-hydroxybutyl)furan [Compound 5]”, the IC50 (read-out: PTP1B inhibitory activity IC50, in vitro, pNPP substrate, triplicate, three independent experiments) was above 1000 µM.

For the origin of these results see article PMC6149825, “PTP1B Inhibitors from the Entomogenous Fungi Isaria fumosorosea” (Molecules : A Journal of Synthetic Chemistry and Natural …, 2017).
